Assays:
Carbonic anhydrase 7 = Carbonic anhydrase 7 (Homo sapiens, UniProt P43166); experiment: Inhibition of recombinant human CA7 incubated for 15 mins by phenol red dye based stopped flow CO2 hydration assay
Carbonic anhydrase 9 = Carbonic anhydrase 9 (Homo sapiens, UniProt Q16790); experiment: Inhibition of recombinant human CA9 incubated for 15 mins by phenol red dye based stopped flow CO2 hydration assay

Sequence of Carbonic anhydrase 7 (P43166 whole entry): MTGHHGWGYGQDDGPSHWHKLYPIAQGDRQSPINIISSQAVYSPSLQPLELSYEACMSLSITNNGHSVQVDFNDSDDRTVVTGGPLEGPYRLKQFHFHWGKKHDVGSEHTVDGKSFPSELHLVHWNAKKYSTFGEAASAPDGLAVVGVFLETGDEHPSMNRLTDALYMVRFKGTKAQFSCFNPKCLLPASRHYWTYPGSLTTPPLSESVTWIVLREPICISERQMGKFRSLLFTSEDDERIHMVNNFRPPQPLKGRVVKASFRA

Row | Compound | Ki (Carbonic anhydrase 7) [µM] | Ki (Carbonic anhydrase 9) [µM]
1 | O[C@H](CCl)C[SeH] | > 100 | > 100
2 | OC(C[SeH])COCc1ccccc1 (stereo not given) |  | 58.7
3 | SC(C[SeH])COCc1ccccc1 (stereo not given) |  | 6.6
4 | COc1ccc(COCC(O)C[SeH])cc1 (stereo not given) | > 100 | > 100
5 | O[C@@H](CCl)C[SeH] | > 100 | 60
6 | CC(C)[C@@H](C[SeH])NC(=O)OC(C)(C)C |  | > 100
7 | CC[C@H](C)[C@@H](C[SeH])NS(=O)(=O)c1ccc(C)cc1 | > 100 | > 100
8 | C=CCOCC(S)C[SeH] (stereo not given) | > 100 | 38.6
9 | Cc1ccc(S(=O)(=O)N[C@H](C[SeH])C(C)C)cc1 |  | 2.1
10 | C=CCOCC(O)C[SeH] (stereo not given) |  | > 100

Reference: ChEMBL document CHEMBL4373741, “Direct and straightforward access to substituted alkyl selenols as novel carbonic anhydrase inhibitors” (Eur J Med Chem, 2020)
